Ends that are not written are not given here.
Legend:
[1] = tested on: breast cancer cell line HCC1937; assay: MTT assay, cell viability, breast cancer cell line HCC1937; type: cell-based; details: Olaparib 2.5 µM alone, 24 hours, FIG. 4B
H1975 cell line = assay: Heterotransplant lung cancer resistance animal model (H1975), tumor growth after Osimertinib resistance; type: in vivo, Balb/C nude mice
Description: H1975 cells were mixed with matrigel in a 1:1 ratio at a concentration of 5 × 10^6 cells/mouse, and each was subcutaneously inoculated at 200µl into the flank of the mouse once. After the inoculation, it was confirmed that the volume of the formed tumor reached 70~130 mm^3, and then random grouping was carried out. After the grouping, Osimertinib was administered orally every day, and after the growth of the tumor was inhibited, the point of re-growth was identified and the co-administration with the test substance was started. The test substances were administered intravenously 7 times at 2-day intervals.
After inoculating the H1975 cell line in 4-week-old female Balb/C nude mice, the presence and growth of the tumor were observed and the short and long axes of the tumor were measured to calculate the volume. When the volume of the tumor reached 70-120 mm^3, the groups were randomly separated and PBS, the negative control group, and Osimertinib at 5 mpk were orally administered daily.
The first day of administration was set as day 1, and the volume of the tumor was measured twice a week.

H1975/OR = assay: MTT assay, cell viability, H1975/OR; type: cell-based; details: Osimertinib 2.5 µM alone, 68 hours, FIG. 1G
Description: (§1) Specifically, cells were seeded at 2 × 10^3/100 µl per well on a 96-well plate, and after culturing for 24 hours, the compound according to the present invention was administered; 4 hours later, anticancer drugs were treated to each cancer cell. The treatment concentration and treatment time of the compound and anticancer drug are specifically described in the embodiment. After completing the treatment of the compound and anticancer drug, CellTiter-96® reagent (Promega Co., USA) was reacted at 5% CO2, 37°C after adding 10 µl per well. After 3 hours, absorbance was measured at 490 nm using a spectrophotometer (SPECTROstar^Nano, BMG).

[2] = tested on: lung cancer cell line H1975; assay: MTT assay, cell viability, lung cancer cell line H1975; type: cell-based; details: 48 hours
[3] = tested on: H820 lung cancer cell line; assay: Heterotransplant lung cancer animal model (H820), tumor growth; type: in vivo; details: H820 nude mice; Osimertinib single administration, 2.5 mpk orally daily; FIG. 6A
Description: The test substances were administered intravenously and orally 7 times at 2-day intervals.
Nude mice transplanted with H820 lung cancer cell line, an animal model of lung cancer described in the "Experimental Materials and Methods," was treated 7 times at a two-day interval for 14 days with 3-PhPh-[…] at a dose of 10 mpk, and Osimertinib was orally administered daily at 2.5 mpk. Then, the growth of the tumor was compared.

[4] = tested on: lung cancer cell line H1975; assay: MTT assay, cell viability, lung cancer cell line H1975; type: cell-based; details: Ac-AQTGTGKT 10 µM alone, 48 hours, FIG. 1C
Description: as §1

O=C(c1cc(Cc2n[nH]c(=O)c3ccccc23)ccc1F)N1CCN(C(=O)C2CC2)CC1 [Olaparib]
decrease in cell viability compared to the control group [1]: no decrease in cell viability

C=CC(=O)Nc1cc(Nc2nccc(-c3cn(C)c4ccccc34)n2)c(OC)cc1N(C)CCN(C)C [Osimertinib]
size of the tumor on the day of termination of administration (average) (H1975 cell line; H1975, after Osimertinib resistance, Osimertinib 5 mpk orally daily + PBS intravenously at a two-day interval, FIG. 6B): 692.6 mm^3 | tumor viability rate (tumor size on the 28th day versus the last measured tumor size) (H1975 cell line; H1975 Balb/C nude mice, Osimertinib 5 mpk orally daily, regrowth from the 24th day, judged as acquired resistance): over 50% | cell viability decreased compared to the control group (H1975/OR): about 7% | cell viability decreased compared to the control group ([2]; Osimertinib 1 µM alone, FIG. 1B): about 5% | tumor growth reduced compared to the control group (PBS administered group) [3]: 46%

Ac-AQTGTGKT
cell viability decreased compared to the control group [4]: about 14%

Nc1nc2[nH]cc(CCc3ccc(C(=O)N[C@@H](CCC(=O)O)C(=O)O)cc3)c2c(=O)[nH]1 [Alimta, Alimta (Pemetrexed)]
cell viability decreased compared to the control group ([2]; Alimta 0.2 µM alone, FIG. 1E): about 6%

Reference: patent EP4335452A1, “PHARMACEUTICAL COMPOSITION FOR ENHANCING ANTICANCER EFFECT OF ANTICANCER DRUG” (L-Base Co., Ltd., priority 2021, dated 2024)
